pIC50: −log10 of the molar value.

Common to all, as to type: cell-based
The test system of test [1] is RT-112 (FGFR3-Tacc3 fusion) cells. The test can be described thus: cell proliferation assay (CellTiterGlo), RT-112 cells. The following applies: Homo sapiens, RT-112, RT112 cells, 72 hours. The essentials:
(§1)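 Cells were suspended, dispensed into plates and incubated with vehicle (DMSO) or test compound at varying concentrations. Growth inhibition was measured by luminescent quantification of intracellular ATP (CellTiterGlo). IC50 values came from growth normalized to vehicle-treated cells taken as viable.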
In general terms: ATP-based viability assays read luminescence as a measure of living cells.

Test [2] concerns SNU-16 (FGFR2-amplification) cells. The test can be described thus: cell proliferation assay (CellTiterGlo), SNU-16 cells. The following applies: Homo sapiens, 72 hours. The essentials: as §1
Test [3] concerns UM-UC-14 (FGFR3-S249C) cells. Nature of the test: cell proliferation assay (CellTiterGlo), UM-UC-14 cells. The conditions noted are these: UMUC14, 72 h. Summed up:
as §1

In test [4] the test system is DMS-114 (FGFR1 overexpression) cells. The test can be described thus: cell proliferation assay (CellTiterGlo), DMS-114 cells. The following applies: Homo sapiens, DMS-114, 72 h. Summed up: as §1

Take `Cc1nc2ccc(Oc3ccc4ncc(-c5cnn(CC6CCSCC6)c5)nc4c3Cl)cc2[nH]1` [Compound 377]: the pIC50 (commonly the IC50 on a negative log10 scale, so that one unit is a factor of ten) in test [1] is 7.00 to 7.70; in test [2], 7.00 to 7.70; in test [3] it was 7.00 to 7.70; in test [4] it was not above 6.40.

As for `Cc1nc2ccc(Oc3ccc4ncc(-c5cnn(C6CCCN(C)C6)c5)nc4c3Cl)cc2[nH]1` (stereo not shown) [Compound 378], the pIC50 in test [1] was 7.00 to 7.70; in test [2], 7.00 to 7.70; in test [3], 7.00 to 7.70; in test [4], not above 6.40.

In the case of `Cc1nc2ccc(Oc3ccc4ncc(-c5cnn(CC6CC7CC6CN7C)c5)nc4c3Cl)cc2[nH]1` (stereo not shown) [Compound 379], the pIC50 in test [1] was 7.00 to 7.70; in test [2], 7.00 to 7.70; in test [3], 7.00 to 7.70; in test [4], 6.40 to 7.00.

On to `Cc1nc2ccc(Oc3ccc4ncc(-c5cnn(CC6CCN(C)CC6(F)F)c5)nc4c3Cl)cc2[nH]1` (stereo not shown) [Compound 380], for which the pIC50 was more than 7.70 in test [1], 7.00 to 7.70 in test [2], 7.00 to 7.70 in test [3] and not above 6.40 in test [4].

Turning to `Cc1nc2ccc(Oc3ccc4ncc(-c5cnn(CCN6CCCC6)c5)nc4c3Cl)cc2[nH]1` [Compound 381], the pIC50 in test [1] is 7.00 to 7.70; in test [2] it was 7.00 to 7.70; in test [3], 7.00 to 7.70; in test [4], not above 6.40.

Consider `Cc1nc2ccc(Oc3ccc4ncc(-c5cnn(CC6CCN(C)CC6)c5)nc4c3C#N)cc2[nH]1` [Compound 382], for which the pIC50 is 7.00 to 7.70 in test [1], 7.00 to 7.70 in test [2], 7.00 to 7.70 in test [3] and 6.40 to 7.00 in test [4].

`Cc1nc2ccc(Oc3ccc4ncc(-c5cnn(CC(=O)N6CCCC6)c5)nc4c3Cl)cc2[nH]1` [Compound 383]: the pIC50 in test [1] is 7.00 to 7.70; in test [2], 7.00 to 7.70; in test [3], 7.00 to 7.70; in test [4], not above 6.40.

As to `C=CS(=O)(=O)N1CCC(Cn2cc(-c3cnc4ccc(Oc5ccc6nc(C)[nH]c6c5)c(Cl)c4n3)cn2)CC1` [Compound 384], the pIC50 in test [1], in test [2], in test [3] and in test [4] was not above 6.40 each time.

For `Cc1nc2ccc(Oc3ccc4ncc(-c5cnn(CC6CCS(=O)(=O)CC6)c5)nc4c3Cl)cc2[nH]1` [Compound 385], the pIC50 in test [1] was more than 7.70; in test [2], 7.00 to 7.70; in test [3] it was 7.00 to 7.70; in test [4], 6.40 to 7.00.

`Cc1nc2ccc(Oc3ccc4ncc(-c5cnn(CC6CCNCC6(F)F)c5)nc4c3Cl)cc2[nH]1` (stereo not shown) [Compound 386]: the pIC50 in test [1] was 7.00 to 7.70; in test [2], 7.00 to 7.70; in test [3], 7.00 to 7.70; in test [4] it was not above 6.40.

As to `Cc1nc2ccc(Oc3ccc4ncc(-c5cnn(CC6CC(F)(F)C6)c5)nc4c3Cl)cc2[nH]1` [Compound 387], the pIC50 is 7.00 to 7.70 in test [1], 7.00 to 7.70 in test [2], 7.00 to 7.70 in test [3] and not above 6.40 in test [4].

`CCOC(Cn1cc(-c2cnc3ccc(Oc4ccc5nc(C)[nH]c5c4)c(Cl)c3n2)cn1)OCC` [Compound 388]: the pIC50 is 6.40 to 7.00 in test [1], 6.40 to 7.00 in test [2], 6.40 to 7.00 in test [3] and not above 6.40 in test [4].

In the case of `Cc1nc2ccc(Oc3ccc4ncc(-c5cnn(CC6OCCCO6)c5)nc4c3Cl)cc2[nH]1` [Compound 389], the pIC50 in test [1] is 7.00 to 7.70; in test [2] it was 7.00 to 7.70; in test [3], 6.40 to 7.00; in test [4] it was not above 6.40.

Values taken from patent US20240368181A1, “QUINOXALINE DERIVATIVES AND USES THEREOF” (Black Diamond Therapeutics, Inc., priority 2021, published 2024).
